Series [1] relates to c-Myc27 oligonucleotide G-quadruplex. Briefly: ECD melting curve of c-Myc27 oligonucleotide G-quadruplex with ligands. The class given is binding. To be noted: ECD at 263 nm; molar ratio oligonucleotide:ligand 1:1 (5 μmol l^−1 each); Li+-cacodylate buffer. Here is the method: ECD spectra were measured on J-815 spectrometer (Jasco, Japan). Measurement settings (Tab. 3), spectra saving and background subtraction was performed in a Spectra Manager software (Jasco, Japan).
For measurement of the temperature dependencies the cuvettes in the cuvette compartment were placed in the Peltier module, the temperature was controlled by the Spectra Manager software. Melting curves were measured at a wavelength which corresponds to the maximum difference in signal intensity of ECD spectra of oligonucleotide at 25 and 95° C., as shown in FIG. 1. Before and after measuring the melting curves, ECD spectra in extreme temperatures were measured, in order to verify the stability of the studied system.
Processing of the spectra was performed using Spectra Manager (Jasco, Japan). The resulting spectra were obtained from the measured sample spectrum after subtraction of background spectrum, which was spectrum of the solvent. Measuring of sample spectrum and background was conducted under identical conditions. ECD spectra are reported as ellipticity, labeled in the CD figures [mdeg], whose numerical value is associated with dimensionless circular dichroism ΔA (CDv=32980 ΔAv). This CD notations preserves conventions of the international journals in which articles from the field are published.
Stock solution of […] was prepared from c-Myc27 oligonucleotide by dissolution in H2O. The cuvette of 1 mm thickness was filled with 7 μl of oligonucleotide solution and 133 μl of Li^+-cacodylate buffer. Oligonucleotide solution in the cuvette was overlayed with mineral oil to measure temperature dependencies without concentration changes due to evaporation of the solvent at higher temperatures.
From stock solutions of the racemic ligands in DMSO at a concentration of […] solutions were prepared at a concentration of 140 μmol l^−1 by dissolving in H2O. Ligands were added to the solution of oligonucleotide under buffer/mineral oil interface using Hamilton microsyringe (5 μl of solution at a concentration of […]). The resulting molar ratio of oligonucleotide:ligand was 1:1.
The cuvette filled with c-Myc27 oligonucleotide solution in Li^+-cacodylate buffer (cc-Myc27=5 μmol l^−1) was first heated for 5 minutes at 95° C., at this temperature ECD spectrum was measured. Then the sample was cooled to 25° C., allowed to stabilize for 10 min and then ECD spectrum was measured again. Then, the melting curve of ECD oligonucleotide at 263 nm was measured in the temperature range 25-95° C. and for verification of the stability of the sample spectra the spectra were measured again at 95 and 25° C. Under the oil layer ligand solution (cligand=5 μmol l^−1) was added to a solution of oligonucleotide, the sample was thoroughly mixed and ECD spectrum measured at 25° C., the melting curve was obtained and again control spectra were measured at 95 and 25° C.
Decomposition of the G-quadruplex structure in the presence of ligands under influence of temperature was monitored at the wavelength corresponding to the maximum difference in signal intensities of ECD oligonucleotide/ligand at 25 and 95° C., i.e. at 263 nm. Thermal stability of G-quadruplex was monitored in the range of 25 to 95° C. and in a molar ratio of oligonucleotide:ligand=1:1. Example of influence of the studied ligand on the stability of G-quadruplex formed from c-Myc27 oligonucleotide is shown in FIG. 2.
The degree of G-quadruplex stabilization was expressed as change of melting temperature caused by the presence of G-quadruplex ligands (ΔTm): ΔTm=Tm,oligonucleotide+ligand−Tm,oligonucleotide (1), • where Tm,oligonucleotide+ligand is melting temperature of molecular system comprising the oligonucleotide and the ligand and Tm,oligonucleotide, the melting temperature of the oligonucleotide itself. Tab. 4 summarizes the changes in melting temperatures of c-Myc27 oligonucleotide G-quadruplex in the presence of studied ligands.

Series [2] has as its system G-quadruplex oligonucleotide Fmyc27T (NHE III1 promoter region of c-myc oncogene). Description: FRET melting of G-quadruplex oligonucleotide Fmyc27T with ligands. The note with it: for ΔTm (° C.) Fmyc27T/ds26 (° C.): helquat 1 μmol·l^−1, oligonucleotide 0.2 μmol·l^−1, 50-fold excess of double-stranded competitor ds26; for ΔTm (° C.) Fmyc27T: helquat 1 μmol·l^−1, oligonucleotide 0.2 μmol·l^−1, without competitor. In kind it is binding. The text has this: (§1) To determine the degree of in vitro interactions of helquats with G-quadruplex(es), the oligonucleotides containing the guanine-rich sequences of human telomere (F21T) and NHE III1 promoter region of c-myc oncogene (Fmyc27T) were used. Both oligonucleotides capable of forming an intramolecular G-quadruplex were end-labeled with suitable fluorophores so as to form donor-acceptor FRET pair (5′-FAM and 3′-TAMRA). If the oligonucleotide is folded into the structure of the G-quadruplex, donor is in close proximity of acceptor and radiationless energy transfer to the acceptor occurs. With increasing temperature of the reaction mixture G-quadruplex structure gradually denatures and thus the donor and acceptor (FAM-TAMRA) drift apart. This leads to an increase in fluorescence of donor (FAM) and a decrease in fluorescence of acceptor (TAMRA).
(§2) The result of measurement is the curve of dependence of the intensity of fluorescence of the donor on the temperature. If the G-quadruplex is stabilized by ligand, melting temperature will increase. Melting temperature of G-quadruplex corresponds to the temperature when 50% of the original amount of the folded G-quadruplex is denatured. The measurement outcome is the difference in the melting temperatures (ΔTm) of the G-quadruplex alone and the G-quadruplex stabilized by ligand. In case of Fmyc27T experiments were performed in cacodylate buffer (10 mmol·l^−1, pH=7.2) with KCl (5 mmol·l^−1) and LiCl (95 mmol·l^−1) oligonucleotide and in case of F21T oligonucleotide in cacodylate buffer (10 mmol·l^−1, pH=7.2) with KCl (25 mmol·l^−1) and LiCl (75 mmol·l^−1).
(§3) Both oligonucleotides were denatured for 5 minutes at 95° C. and subsequently allowed to cool to room temperature (3 hours) in the switched-off thermoblock. The final oligonucleotide concentration in the reaction mixture was 0.2 μmol·l^−1. Test helquats were present at concentrations of 1 μmol·l^−1. The total reaction volume was 30 μl. The melting temperature of the oligonucleotides alone (without the presence of helquats) under these conditions was 58.1±0.2° C. for F21T and 64.7±0.4° C. for Fmyc27T. For determining the selectivity of binding of helquats to G-quadruplex in comparison with the double-stranded DNA, 50-fold excess of double-stranded DNA ([…] unlabeled competitor ds26 forming a hairpin) is added to the reaction mixture. After the addition to the reaction mixture ds26 competes with labeled oligonucleotide (Fmyc27T or F21T) for ligand binding. […] Melting temperature of oligonucleotides alone in the presence of the competitor is 59.4±0.5° C. for F21T and 66.3° C.±0.6° C. for Fmyc27T.
(§4) Fluorescence of FAM donor was measured using real-time PCR apparatus Opticon 2 (excitation 470-505 nm and emission 523-543 nm) in temperature increments of 0.5° C. in the range 25 to 95° C. Evaluation of the sigmoid curves of fluorescence intensity dependent on the temperature were performed in GraphPad Prism 5 (GraphPad Software, Inc., USA). Using nonlinear five parametric regression the inflection point on the curve was calculated that corresponds to the melting temperature (Tm) of the G-quadruplex under the given conditions. The values were obtained from at least three independent measurements.

Series [3] has as its system G-quadruplex oligonucleotide F21T (human telomere). Description: FRET melting of G-quadruplex oligonucleotide F21T with ligands. In kind it is binding. The note with it: for ΔTm (° C.) F21T/ds26: helquat 1 μmol·l^−1, oligonucleotide 0.2 μmol·l^−1, 50-fold excess of double-stranded competitor ds26; for ΔTm (° C.) F21T: helquat 1 μmol·l^−1, oligonucleotide 0.2 μmol·l^−1, without competitor.
From the text: as §1, §2, §3, §4

A further series has as its system G-quadruplex. The note with it: background statement; cited from earlier work.
For series [4] the following is noted: Phase II clinical trials; cited from earlier work.

For `Brc1ccc2[nH]cc(/C=C/c3cc[n+]4c(c3)-c3c(ccc5c3-c3cccc[n+]3CC5)CC4)c2c1.O=S(=O)([O-])C(F)(F)F.O=S(=O)([O-])C(F)(F)F` [LSA-C9-30, (E)-2-(2-(5-bromo-1H-indol-3-yl)vinyl)-6,7,10,11-tetrahydrodipyrido[2,1-a:1′,2′-k][2,9]phenanthroline-5,12-diium trifluoromethanesulfonate], in series [1], the “ΔTm (° C.)” value came to 6.4 °C. In series [2], the “ΔTm (° C.) Fmyc27T/ds26 (° C.)” value was determined as 8.2 °C and the “ΔTm (° C.) Fmyc27T” value worked out at 10.5 °C. Besides, in series [3], the “ΔTm (° C.) F21T/ds26” value is 5.5 °C and the “ΔTm (° C.) F21T” value was found to be 8.6 °C.

As to `Cc1[nH]c2ccccc2c1/C=C/c1cc[n+]2c(c1)-c1c(ccc3c1-c1cc(/C=C/c4c(C)[nH]c5ccccc45)cc[n+]1CC3)CC2.O=S(=O)([O-])C(F)(F)F.O=S(=O)([O-])C(F)(F)F` [PDA-C10-11, 2,15-bis((E)-2-(2-methyl-1H-indol-3-yl)vinyl)-6,7,10,11-tetrahydrodipyrido[2,1-a:1′,2′-k][2,9]phenanthroline-5,12-diium trifluoromethanesulfonate], in series [1], the “ΔTm (° C.)” value stood at 8.2 °C. In addition, in series [2], the “ΔTm (° C.) Fmyc27T/ds26 (° C.)” value is 13.9 °C and the “ΔTm (° C.) Fmyc27T” value was 14.9 °C. Besides, in series [3], the “ΔTm (° C.) F21T/ds26” value came out at 12.3 °C and the “ΔTm (° C.) F21T” value was found to be 12.9 °C.

For the compound `C(=C\c1c(-c2ccccc2)[nH]c2ccccc12)/c1cc[n+]2c(c1)-c1c(ccc3c1-c1cc(/C=C/c4c(-c5ccccc5)[nH]c5ccccc45)cc[n+]1CC3)CC2.O=S(=O)([O-])C(F)(F)F.O=S(=O)([O-])C(F)(F)F` [PDA-C15-8, 2,15-bis((E)-2-(2-phenyl-1H-indol-3-yl)vinyl)-6,7,10,11-tetrahydrodipyrido[2,1-a:1′,2′-k][2,9]phenanthroline-5,12-diium trifluoromethanesulfonate], the “ΔTm (° C.)” value in series [1] came to 10.1 °C. Besides, in series [2], the “ΔTm (° C.) Fmyc27T/ds26 (° C.)” value came out at 19.9 °C and the “ΔTm (° C.) Fmyc27T” value is 18.8 °C. Further, in series [3], the “ΔTm (° C.) F21T/ds26” value was 17.3 °C and the “ΔTm (° C.) F21T” value was 17.2 °C.

Consider `Cc1c(C)c2c(c3c1CC[n+]1ccc(/C=C/c4c[nH]c5ncccc45)cc1-3)-c1cc(/C=C/c3c[nH]c4ncccc34)cc[n+]1CC2` [PDB-C8-14, 2,15-bis((E)-2-(1H-pyrrolo[2,3-b]pyridin-3-yl)vinyl)-8,9-dimethyl-6,7,10,11-tetrahydrodipyrido[2,1-a:1′,2′-k][2,9]phenanthroline-5,12-diium trifluoromethanesulfonate], for which the “ΔTm (° C.)” value in series [1] was 5.0 °C. Further, in series [2], the “ΔTm (° C.) Fmyc27T/ds26 (° C.)” value worked out at 9.3 °C and the “ΔTm (° C.) Fmyc27T” value came to 11.5 °C. In series [3], the “ΔTm (° C.) F21T/ds26” value stood at 5.0 °C and the “ΔTm (° C.) F21T” value stood at 8.4 °C.

As for `Cc1[nH]c2ccccc2c1/C=C/c1cc[n+]2c(c1)-c1c(c(C)c(C)c3c1-c1cc(/C=C/c4c(C)[nH]c5ccccc45)cc[n+]1CC3)CC2` [PDB-C10-11, 8,9-dimethyl-2,15-bis((E)-2-(2-methyl-1H-indol-3-yl)vinyl)-6,7,10,11-tetrahydrodipyrido[2,1-a:1′,2′-k][2,9]phenanthroline-5,12-diium trifluoromethanesulfonate], in series [1], the “ΔTm (° C.)” value was found to be 9.8 °C. Besides, in series [2], the “ΔTm (° C.) Fmyc27T/ds26 (° C.)” value is 13.1 °C and the “ΔTm (° C.) Fmyc27T” value worked out at 14.2 °C. Also, in series [3], the “ΔTm (° C.) F21T/ds26” value is 10.7 °C and the “ΔTm (° C.) F21T” value worked out at 13.0 °C.

On to `C[n+]1ccc(-c2c3nc(c(-c4cc[n+](C)cc4)c4ccc([nH]4)c(-c4cc[n+](C)cc4)c4ccc([nH]4)c(-c4cc[n+](C)cc4)c4nc2C=C4)C=C3)cc1` [TMPyP4], for which the “selectivity towards G-quadruplex in presence of DNA duplex” value in the series on G-quadruplex is “low selectivity”.

Regarding `CN1CCC[C@H]1CCNC(=O)c1cn2c3c(c(N4CCC(c5cnccn5)C4)c(F)cc3c1=O)Oc1cc3ccccc3cc1-2` (stereo partly drawn) [quarfloxin], in series [4], the bioavailability result is on record as “poor bioavailability”.

The values are drawn from patent US9932339B2, “Helquats with heteroaromatic substituents, preparation thereof, and use thereof as G-quadruplex stabilizers” (USTAV ORGANICKE CHEMIE A BIOCHEMIE AV CR, V.V.I., priority 2014, dated 2018).
